Assay results reported in ChEMBL document CHEMBL5729431, “Benzisoxazole sulfonamide derivatives” (2022).

What was measured:
[1] = target: Histone acetyltransferase KAT6B (Homo sapiens, UniProt Q8WYB5); assay: (§1) Kat6B Assay 1: A. Compound preparation 1. Prepare 10 mM stock solutions in 100% DMSO from solid material 2. Serial dilute 10 mM, 1 mM or 0.1 mM compound stocks 3-fold in 100% DMSO for 11-point dose responseB. Reagent preparation 1. Prepare 1× assay buffer containing 10 mM Tris HCL pH 8.0, 2.5 mM NaCl, 0.5 mM EDTA, 0.005% BSG and 0.02% Tween-20 2. Dilute Histone peptide (CPC Scientific) and AcCoA (Sigma) together in assay buffer to 2×. 3. Dilute KAT enzyme in assay buffer to 2×.C. Enzyme reaction 1. Final reaction conditions for each KAT assay in a 20 ul assay reaction volume: KAT6B 25 nM, 1 uM AcCoA, 2 uM H3 1-21 peptide, 60-minute reaction 2. Add 0.5 ul of diluted compound to the assay plate (384-well V-bottom polypropylene plates) or 0.5 ul of DMSO for control wells. 3. Add 10 ul of 2× Histone peptide/2×AcCoA mix to the assay plate. 4. Add 10 ul of 2× enzyme to the assay plate. 5. Stop the reaction after the indicated time with the addition of 2 ul of 5% formic acid 6. Each reaction was analyzed using self-assembled monolayer desorption/ionization time-of-flight mass spectrometry (Mrksich, Milan (2008) Mass Spectrometry of Self-Assembled Monolayers: A New Tool for Molecular Surface Science ACS Nano 2008 2 (1), 7-18; SAMDI Tech, Inc. (Chicago, Ill.)). 7. […]
[2] = target: Histone acetyltransferase KAT7 (Homo sapiens, UniProt O95251); assay: as §1, with “Kat7 Assay:” for “Kat6B Assay 1:”, “KAT7 12.5” for “KAT6B 25”, “45-minute” for “60-minute”
Histone acetyltransferase KAT7, sequence (O95251 whole entry): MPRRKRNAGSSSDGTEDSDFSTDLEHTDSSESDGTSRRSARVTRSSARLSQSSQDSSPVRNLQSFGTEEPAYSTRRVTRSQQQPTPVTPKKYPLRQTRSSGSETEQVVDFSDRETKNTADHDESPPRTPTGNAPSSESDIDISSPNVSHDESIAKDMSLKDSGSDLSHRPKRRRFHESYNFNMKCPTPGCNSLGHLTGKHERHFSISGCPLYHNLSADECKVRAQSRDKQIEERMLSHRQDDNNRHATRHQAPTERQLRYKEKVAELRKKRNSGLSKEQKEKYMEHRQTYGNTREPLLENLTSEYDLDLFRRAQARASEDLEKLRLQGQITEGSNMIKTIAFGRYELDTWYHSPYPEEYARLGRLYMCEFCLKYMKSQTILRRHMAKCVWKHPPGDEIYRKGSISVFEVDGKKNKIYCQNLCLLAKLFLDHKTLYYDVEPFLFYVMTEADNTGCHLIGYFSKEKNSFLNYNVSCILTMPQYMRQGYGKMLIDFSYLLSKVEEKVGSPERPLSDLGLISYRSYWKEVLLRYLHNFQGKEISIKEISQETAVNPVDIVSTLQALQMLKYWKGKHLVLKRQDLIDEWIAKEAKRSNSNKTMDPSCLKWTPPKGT

[3] = target: T1, Histone acetyltransferase KAT8 (Homo sapiens, UniProt Q9H7Z6); assay: as §1, with “Kat8 Assay: TBDA.” for “Kat6B Assay 1: A.”, “KAT8 15” for “KAT6B 25”, “45-minute” for “60-minute”
T1 sequence (Q9H7Z6 whole entry): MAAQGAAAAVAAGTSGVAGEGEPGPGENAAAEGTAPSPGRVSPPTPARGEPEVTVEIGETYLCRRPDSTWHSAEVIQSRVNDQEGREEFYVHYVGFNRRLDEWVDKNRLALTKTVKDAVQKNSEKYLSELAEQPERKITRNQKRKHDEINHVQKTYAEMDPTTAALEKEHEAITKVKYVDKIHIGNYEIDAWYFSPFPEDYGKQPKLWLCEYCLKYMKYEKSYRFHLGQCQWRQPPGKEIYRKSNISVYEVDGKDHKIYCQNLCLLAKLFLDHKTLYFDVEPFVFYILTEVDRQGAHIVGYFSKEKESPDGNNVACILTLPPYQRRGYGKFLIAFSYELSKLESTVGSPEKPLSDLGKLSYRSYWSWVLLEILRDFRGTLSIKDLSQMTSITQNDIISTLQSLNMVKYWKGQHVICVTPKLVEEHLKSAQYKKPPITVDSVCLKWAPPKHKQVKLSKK

[4] = target: Histone acetyltransferase KAT6A (Homo sapiens, UniProt Q92794); assay: as §1, with “Kat6A” for “Kat6B”, “ii. KAT6A 15” for “KAT6B 25”, “45-minute” for “60-minute”
Histone acetyltransferase KAT6A, sequence (Q92794 whole entry): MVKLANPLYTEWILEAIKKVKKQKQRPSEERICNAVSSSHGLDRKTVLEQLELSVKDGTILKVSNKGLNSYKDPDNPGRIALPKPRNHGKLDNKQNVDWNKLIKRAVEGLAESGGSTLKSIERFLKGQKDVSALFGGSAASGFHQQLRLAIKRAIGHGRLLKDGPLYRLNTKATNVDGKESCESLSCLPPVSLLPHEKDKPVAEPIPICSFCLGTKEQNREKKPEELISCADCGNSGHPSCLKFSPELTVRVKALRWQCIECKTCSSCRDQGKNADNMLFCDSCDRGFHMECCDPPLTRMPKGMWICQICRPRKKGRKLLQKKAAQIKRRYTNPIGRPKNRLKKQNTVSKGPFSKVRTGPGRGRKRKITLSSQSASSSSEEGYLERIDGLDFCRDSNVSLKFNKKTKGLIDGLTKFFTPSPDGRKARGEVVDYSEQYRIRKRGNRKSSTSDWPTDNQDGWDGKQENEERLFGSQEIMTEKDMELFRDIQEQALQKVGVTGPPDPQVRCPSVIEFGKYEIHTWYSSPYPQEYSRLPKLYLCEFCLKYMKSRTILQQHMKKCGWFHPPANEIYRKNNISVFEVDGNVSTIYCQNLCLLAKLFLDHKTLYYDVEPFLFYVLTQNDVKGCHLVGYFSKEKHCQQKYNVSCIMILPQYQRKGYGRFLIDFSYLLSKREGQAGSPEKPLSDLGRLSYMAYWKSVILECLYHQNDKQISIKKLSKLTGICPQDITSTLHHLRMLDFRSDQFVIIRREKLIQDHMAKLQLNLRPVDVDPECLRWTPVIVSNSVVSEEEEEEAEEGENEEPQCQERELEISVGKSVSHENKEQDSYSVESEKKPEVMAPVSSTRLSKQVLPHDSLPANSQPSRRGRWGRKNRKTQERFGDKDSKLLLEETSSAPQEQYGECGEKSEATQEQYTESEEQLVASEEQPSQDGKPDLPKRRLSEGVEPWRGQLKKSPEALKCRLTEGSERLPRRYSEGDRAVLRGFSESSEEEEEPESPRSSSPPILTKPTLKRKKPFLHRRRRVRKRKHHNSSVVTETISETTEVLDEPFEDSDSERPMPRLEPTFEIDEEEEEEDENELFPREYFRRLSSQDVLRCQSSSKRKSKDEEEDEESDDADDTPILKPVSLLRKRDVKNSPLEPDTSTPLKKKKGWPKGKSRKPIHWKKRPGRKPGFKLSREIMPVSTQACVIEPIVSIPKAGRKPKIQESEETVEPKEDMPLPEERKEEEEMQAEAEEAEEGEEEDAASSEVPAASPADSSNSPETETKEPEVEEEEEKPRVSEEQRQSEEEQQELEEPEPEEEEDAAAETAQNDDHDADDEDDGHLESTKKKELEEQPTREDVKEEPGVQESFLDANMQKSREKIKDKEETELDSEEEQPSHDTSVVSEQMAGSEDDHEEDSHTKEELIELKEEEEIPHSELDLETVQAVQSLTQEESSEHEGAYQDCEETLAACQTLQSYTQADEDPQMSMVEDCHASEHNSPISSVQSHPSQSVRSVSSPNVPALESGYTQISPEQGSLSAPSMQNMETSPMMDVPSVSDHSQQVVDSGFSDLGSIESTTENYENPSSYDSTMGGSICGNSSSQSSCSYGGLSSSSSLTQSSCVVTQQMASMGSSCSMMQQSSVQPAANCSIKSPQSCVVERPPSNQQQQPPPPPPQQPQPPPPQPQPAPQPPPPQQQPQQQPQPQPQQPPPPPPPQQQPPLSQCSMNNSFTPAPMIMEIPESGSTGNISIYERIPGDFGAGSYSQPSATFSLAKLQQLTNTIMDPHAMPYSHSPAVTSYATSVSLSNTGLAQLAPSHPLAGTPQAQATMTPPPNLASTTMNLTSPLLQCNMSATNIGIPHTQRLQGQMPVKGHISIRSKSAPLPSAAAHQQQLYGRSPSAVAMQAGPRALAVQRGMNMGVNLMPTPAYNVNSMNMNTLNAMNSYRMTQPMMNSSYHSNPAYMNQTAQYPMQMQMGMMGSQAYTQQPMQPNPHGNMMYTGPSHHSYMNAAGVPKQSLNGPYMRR

[5] = target: Histone acetyltransferase KAT5 (Homo sapiens, UniProt Q92993); assay: as §1, with “Kat5 Assay:” for “Kat6B Assay 1:”, “KAT5” for “KAT6B”, “H4” for “H3”, “30-minute” for “60-minute”
Histone acetyltransferase KAT5, sequence (Q92993 whole entry): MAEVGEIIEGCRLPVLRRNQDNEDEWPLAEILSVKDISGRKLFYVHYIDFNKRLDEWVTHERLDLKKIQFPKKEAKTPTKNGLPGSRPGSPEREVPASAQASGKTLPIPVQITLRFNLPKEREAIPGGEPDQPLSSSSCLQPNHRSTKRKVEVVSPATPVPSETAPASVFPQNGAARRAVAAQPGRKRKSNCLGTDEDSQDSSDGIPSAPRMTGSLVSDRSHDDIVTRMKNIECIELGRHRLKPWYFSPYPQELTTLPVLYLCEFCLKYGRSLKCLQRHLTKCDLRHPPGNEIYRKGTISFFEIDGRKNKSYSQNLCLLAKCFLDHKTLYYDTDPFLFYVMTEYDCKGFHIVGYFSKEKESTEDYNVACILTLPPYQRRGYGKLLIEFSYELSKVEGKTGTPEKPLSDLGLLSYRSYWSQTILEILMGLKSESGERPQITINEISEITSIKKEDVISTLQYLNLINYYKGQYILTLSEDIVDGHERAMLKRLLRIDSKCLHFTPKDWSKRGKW

- Ki [1]: 60.8 nM
- Ki [2]: 900 nM
- Ki [3]: 20600 nM
- Ki [4]: 10.3 nM
- Ki [5]: 5980 nM
SMILES: COc1cc(Cn2cccn2)cc2onc(NS(=O)(=O)c3ccccc3)c12
